Experimental data: patent US20260209249A1, “NOVEL TRICYCLIC COMPOUND AS KRAS G12D INHIBITOR, AND USE THEREOF” (SK Biopharmaceuticals Co., priority 2022, published 2026)

Columns and labels:
[1] = target: T1, GppNHp-KRAS G12D mutant protein (Homo sapiens, UniProt P01116, G12D); assay: Differential scanning fluorimetry (DSF) binding affinity to GppNHp-KRAS G12D mutant protein; settings: DSF thermal shift, 10 μM compound, 4 μg KRAS protein, 50 mM HEPES (pH 7.5)
T1 construct: purchased Daegu Gyeongbuk Medical Innovation Foundation (DGMIF), made to order
Procedure: (§1) Test Example 1: Measurement of Binding Affinity to KRAS G12D Mutant Protein The binding affinities of the compounds according to one embodiment of the present application to the KRAS G12D mutant protein were evaluated using differential scanning fluorimetry (DSF). Differential scanning fluorimetry (DSF) is a method used to study the stability of a protein upon binding to a compound. The experiment can be performed using a real-time PCR (RT-PCR) instrument, and is commonly employed as a screening technique for small-molecule compounds targeting specific proteins. As the temperature increases, folded proteins begin to unfold, during which a hydrophobic dye such as SYPRO Orange binds to the exposed hydrophobic regions of the protein, resulting in a measurable increase in fluorescence intensity (maximum absorption at 470 nm and maximum emission at 570 nm). Protein-compound binding is determined by the difference in the melting temperature (Tm) of the protein in the presence of the compound compared to the Tm in the absence of the compound, expressed as ΔTm. The binding affinity to the KRAS G12D mutant protein was measured using the Protein Thermal Shift Dye kit (#4461146, Applied Biosystems). The GDP-KRAS G12D mutant protein and GppNHp-KRAS G12D mutant protein used in the experiment were recombinant proteins synthesized by the Daegu Gyeongbuk Medical Innovation Foundation (DGMIF) upon request. The analysis of binding between the compound and the KRAS G12D mutant protein was performed according to the following reaction recipe: each test sample contained 4 μg of KRAS protein, 10 μM of the compound, and 2×SYPRO Orange dye. For the GDP-KRAS G12D protein samples, the buffer provided with the Protein Thermal Shift Dye kit was used, while for the GppNHp-KRAS G12D protein samples, 50 mM HEPES (pH 7.5) buffer was used. For the protein-compound binding reaction, the compound was added to the KRAS G12D mutant protein and reacted at room temperature for 30 minutes, followed by the addition of 2×SYPRO Orange dye. The temperature was increased to 25° C.-99° C. (0.05° C./s) using QuantStudiol RT-PCR instrument (Applied Biosystems), and fluorescence was measured using a ROX reporter with filters of 580±10 nm (excitation)/623±14 nm (emission). The measurements obtained at a compound concentration of 10 μM were analyzed using the Protein Thermal Shift Software program (version v1.4, Thermo Fisher Scientific), and the ΔTm (° C.) values, which indicate the binding affinity of the compound to the KRAS G12D mutant protein, were calculated. The DSF measurement results for the compounds according to one embodiment of the present application with respect to the KRAS G12D mutant protein are shown in Table 2.

[2] = target: T2, GDP-KRAS G12D mutant protein (Homo sapiens, UniProt P01116, G12D); assay: Differential scanning fluorimetry (DSF) binding affinity to GDP-KRAS G12D mutant protein; settings: DSF thermal shift, 10 μM compound, 4 μg KRAS protein
T2 construct: purchased Daegu Gyeongbuk Medical Innovation Foundation (DGMIF), made to order
Procedure: as §1

Compound: C#Cc1c(F)ccc2cc(O)cc(-c3c(F)c4nc(OC[C@@]56CCCN5C[C@H](F)C6)nc(N5[C@@H]6CC[C@H]5CNC6)c4c4cn(C)nc34)c12 [Example 103, 4-(9-((1 R,5S)-3,8-diazabicyclo[3.2.1]octan-8-yl)-5-fluoro-7-(((2R,7aS)-2-fluorotetrahydro-1H-pyrrolizin-7a(5H)-yl)methoxy)-2-methyl-2H-pyrazolo[4,3-n]quinazolin-4-yl)-5-ethynyl-6-fluoronaphthalen-2-ol]
- GppNHp-KRAS G12D (ΔTmD, ° C.) [1]: 11.59 °C
- GDP-KRAS G12D (ΔTmD, ° C.) [2]: 14.80 °C

Compound: C#Cc1c(F)ccc2cc(O)cc(-c3cc4nc(OCC5(CN6CCC[C@H](F)C6)CC5)nc(N5[C@@H]6CC[C@H]5CNC6)c4n4ccnc34)c12 [Example 19, 4-(1-((1R,5S)-3,8-diazabicyclo[3.2.1]octan-8-yl)-3-((1-(((S)-3-fluoropiperidin-1-yl)methyl)cyclopropyl)methoxy)imidazo[1′,2′:1,6]pyrido[3,2-d]pyrimidin-6-yl)-5-ethynyl-6-fluoronaphthalen-2-ol]
- GppNHp-KRAS G12D (ΔTmD, ° C.) [1]: 3.82 °C
- GDP-KRAS G12D (ΔTmD, ° C.) [2]: 7.68 °C

Compound: Nc1c(F)c(F)c(F)c(-c2cc3nc(OC[C@@]45CCCN4C[C@H](F)C5)nc(N4C[C@H]5CC[C@@H](C4)N5)c3n3ccnc23)c1F [Example 13, 3-(1-((1R,5S)-3,8-diazabicyclo[3.2.1]octan-3-yl)-3-(((2R,7aS)-2-fluorotetrahydro-1H-pyrrolizin-7a(51H)-yl)methoxy)imidazo[1′,2′:1,6]pyrido[3,2-d]pyrimidin-6-yl)-2,4,5,6-tetrafluoroaniline]
- GppNHp-KRAS G12D (ΔTmD, ° C.) [1]: −0.61 °C
- GDP-KRAS G12D (ΔTmD, ° C.) [2]: 0.28 °C

Compound: C#Cc1c(F)ccc2cccc(-c3c(F)c4nc(OC[C@@]56CCCN5C[C@H](F)C6)nc(N5C[C@H]6CC[C@@H](C5)N6)c4c4cn(C)nc34)c12 [Example 82, 9-((1 R,5S)-3,8-diazabicyclo[3.2.1]octan-3-yl)-4-(8-ethynyl-7-fluoronaphthalen-1-yl)-5-fluoro-7-(((2R,7aS)-2-fluorotetrahydro-1H-pyrrolizin-7a(5H)-yl)methoxy)-2-methyl-2H-pyrazolo[4,3-n]quinazoline]
- GppNHp-KRAS G12D (ΔTmD, ° C.) [1]: 3.26 °C
- GDP-KRAS G12D (ΔTmD, ° C.) [2]: 7.52 °C

Compound: C#Cc1c(F)ccc2cccc(-c3cc4nc(OC[C@@]56CCCN5C/C(=C\F)C6)nc(N5C[C@H]6CC[C@@H](C5)N6)c4n4ccnc34)c12 [Example 27, 1-((1 R,5S)-3,8-diazabicyclo[3.2.1]octan-3-yl)-6-(8-ethynyl-7-fluoronaphthalen-1-yl)-3-(((S,Z)-2-(fluoromethylene)tetrahydro-1H-pyrrolizin-7a(5H)-yl)methoxy)imidazo[1′,2′:1,6]pyrido[3,2-d]pyrimidine]
- GppNHp-KRAS G12D (ΔTmD, ° C.) [1]: 0.71 °C
- GDP-KRAS G12D (ΔTmD, ° C.) [2]: 4.27 °C

Compound: C#Cc1c(F)ccc2cccc(-c3cc4nc(OC[C@@]56CCCN5C[C@H](F)C6)nc(N5C[C@H]6CC[C@@H](C5)N6)c4n4ccnc34)c12 [Example 28, 1-((1R,5S)-3,8-diazabicyclo[3.2.1]octan-3-yl)-6-(8-ethynyl-7-fluoronaphthalen-1-yl)-3-(((2R,7aS)-2-fluorotetrahydro-1H-pyrrolizin-7a(5H)-yl)methoxy)imidazo[1′,2′:1,6]pyrido[3,2-d]pyrimidine]
- GppNHp-KRAS G12D (ΔTmD, ° C.) [1]: 0.27 °C
- GDP-KRAS G12D (ΔTmD, ° C.) [2]: 3.53 °C

Compound: Nc1nc2c(-c3cc4nc(OC[C@@]56CCCN5C[C@H](F)C6)nc(N5[C@@H]6CC[C@H]5CNC6)c4n4ccnc34)ccc(F)c2s1 [Example 15, 4-(1-((1R,5S)-3,8-diazabicyclo[3.2.1]octan-8-yl)-3-(((2R,7aS)-2-fluorotetrahydro-1H-pyrrolizin-7a(5H)-yl)methoxy)imidazo[1′,2′:1,6]pyrido[3,2-d]pyrimidin-6-yl)-7-fluorobenzo[d]thiazol-2-amine]
- GppNHp-KRAS G12D (ΔTmD, ° C.) [1]: 0.28 °C
- GDP-KRAS G12D (ΔTmD, ° C.) [2]: −0.01 °C

Compound: CCc1c(F)ccc2cc(O)cc(-c3cc4nc(OC[C@@]56CCCN5C[C@H](F)C6)nc(NCC5(N(C)C)CCC5)c4n4ccnc34)c12 [Example 4, 4-(1-(((1-(dimethylamino)cyclobutyl)methyl)amino)-3-(((2R,7aS)-2-fluorotetrahydro-1H-pyrrolizin-7a(5H)-yl)methoxy)imidazo[1′,2′:1,6]pyrido[3,2-d]pyrimidin-6-yl)-5-ethyl-6-fluoronaphthalen-2-ol]
- GppNHp-KRAS G12D (ΔTmD, ° C.) [1]: 0.57 °C
- GDP-KRAS G12D (ΔTmD, ° C.) [2]: 1.90 °C

Compound: Cc1cc2c(o1)c(-c1cccc3sc(N)nc13)c(F)c1nc(OC[C@@]34CCCN3C[C@H](F)C4)nc(N3CC4CCC(C3)N4)c12 [Example 54, 4-(1-((1R,5S)-3,8-diazabicyclo[3.2.1]octan-3-yl)-5-fluoro-3-(((2R,7aS)-2-fluorotetrahydro-1H-pyrrolizin-7a(5H)-yl)methoxy)-8-methylfuro[3,2-n]quinazolin-6-yl)benzo[d]thiazol-2-amine]
- GppNHp-KRAS G12D (ΔTmD, ° C.) [1]: 1.61 °C
- GDP-KRAS G12D (ΔTmD, ° C.) [2]: 2.95 °C

Compound: Cc1cc2[nH]ncc2c(-c2cc3nc(OC[C@@]45CCCN4C[C@H](F)C5)nc(N4C[C@H]5CC[C@@H](C4)N5)c3n3ccnc23)c1C(F)(F)F [Example 26, 1-((1 R,5S)-3,8-diazabicyclo[3.2.1]octan-3-yl)-3-(((2R,7aS)-2-fluorotetrahydro-1H-pyrrolizin-7a(5H)-yl)methoxy)-6-(6-methyl-5-(trifluoromethyl)-1H-indazol-4-yl)imidazo[1′,2′:1,6]pyrido[3,2-d]pyrimidine]
- GppNHp-KRAS G12D (ΔTmD, ° C.) [1]: 1.01 °C
- GDP-KRAS G12D (ΔTmD, ° C.) [2]: 4.12 °C

Compound: C#Cc1c(F)ccc2cc(O)cc(-c3c(F)c4nc(OC[C@@]56CCCN5CC(=C(F)F)C6)nc(N5CC6CCC(C5)N6)c4c4cc(C)oc34)c12 [Example 66, 4-(1-((1R,5S)-3,8-diazabicyclo[3.2.1]octan-3-yl)-3-(((S)-2-(difluoromethylene)tetrahydro-1H-pyrrolizin-7a(5H)-yl)methoxy)-5-fluoro-8-methylfuro[3,2-n]quinazolin-6-yl)-5-ethynyl-6-fluoronaphthalen-2-ol]
- GppNHp-KRAS G12D (ΔTmD, ° C.) [1]: 9.45 °C
- GDP-KRAS G12D (ΔTmD, ° C.) [2]: 14.49 °C

Compound: C#Cc1c(F)ccc2cc(N)cc(-c3cc4nc(OC[C@@]56CCCN5C/C(=C\F)C6)nc(N5C[C@H]6CC[C@@H](C5)N6)c4n4ccnc34)c12 [Example 36, 4-(1-((1R,5S)-3,8-diazabicyclo[3.2.1]octan-3-yl)-3-(((S,Z)-2-(fluoromethylene)tetrahydro-1H-pyrrolizin-7a(5H)-yl)methoxy)imidazo[1′,2′:1,6]pyrido[3,2-d]pyrimidin-6-yl)-5-ethynyl-6-fluoronaphthalen-2-amine]
- GppNHp-KRAS G12D (ΔTmD, ° C.) [1]: 3.42 °C
- GDP-KRAS G12D (ΔTmD, ° C.) [2]: 7.57 °C

Compound: C#Cc1c(F)ccc2cc(N)cc(-c3cc4nc(OCC5(CN6CCC7(CC6)CC7(F)F)CC5)nc(N5C[C@H]6CC[C@@H](C5)N6)c4c4cn(C)nc34)c12 [Example 76, 4-(9-((1 R,5S)-3,8-diazabicyclo[3.2.1]octan-3-yl)-7-((1-((1,1-difluoro-6-azaspiro[2.5]octan-6-yl)methyl)cyclopropyl)methoxy)-2-methyl-2H-pyrazolo[4,3-f]quinazolin-4-yl)-5-ethynyl-6-fluoronaphthalen-2-amine]
- GppNHp-KRAS G12D (ΔTmD, ° C.) [1]: 1.47 °C
- GDP-KRAS G12D (ΔTmD, ° C.) [2]: 5.17 °C

Compound: C#Cc1c(F)ccc2cc(N)cc(-c3c(F)c4nc(OCC5(CN6CCC7(CC6)CC7(F)F)CC5)nc(N5C[C@H]6CC[C@@H](C5)N6)c4c4cc(C)oc34)c12 [Example 58, 4-(1-((1R,5S)-3,8-diazabicyclo[3.2.1]octan-3-yl)-3-((1-((1,1-difluoro-6-azaspiro[2.5]octan-6-yl)methyl)cyclopropyl)methoxy)-5-fluoro-8-methylfuro[3,2-f]quinazolin-6-yl)-5-ethynyl-6-fluoronaphthalen-2-amine]
- GppNHp-KRAS G12D (ΔTmD, ° C.) [1]: 1.92 °C
- GDP-KRAS G12D (ΔTmD, ° C.) [2]: 6.81 °C

Compound: C#Cc1c(F)ccc2cc(O)cc(-c3cc4nc(OC[C@@]56CCCN5CC(=C(F)F)C6)nc(N5[C@@H]6CC[C@H]5CNC6)c4n4ccnc34)c12 [Example 106, 4-(1-((1 R,5S)-3,8-diazabicyclo[3.2.1]octan-8-yl)-3-(((S)-2-(difluoromethylene)tetrahydro-1H-pyrrolizin-7a(5H)-yl)methoxy)imidazo[1′,2′:1,6]pyrido[3,2-d]pyrimidin-6-yl)-5-ethynyl-6-fluoronaphthalen-2-ol]
- GppNHp-KRAS G12D (ΔTmD, ° C.) [1]: 6.65 °C
- GDP-KRAS G12D (ΔTmD, ° C.) [2]: 10.21 °C
